Where a name gives a salt, the structure may show the parent alone.
What was measured:
[1] = tested on: MDS-L; experiment: Leukemia cell growth inhibition evaluation (WST-8); format: cell-based; conditions: Homo sapiens; day 3 (72-hour culture); read-out: Human leukemia cell line GI50 (μM) MDS-L
Description: (§1) HL60, THP-1, K562, U937, KGla, HEL, and MDS-L were used as human leukemia cells. The cell lines are cell lines established from various subtypes such as acute myeloid leukemia, acute promyelocytic leukemia, acute monocytic leukemia, acute erythroid leukemia, and myelodysplastic syndromes, which progress to leukemia. Cells obtained by introducing leukemia fusion genes MLL/AF9, MLL/SEPT6, and MLL/ENL into the bone marrow of normal mice with a retrovirus so as to develop leukemia were used as murine leukemia cell lines.
(§2) This assay method involves, as a principle thereof, measuring an absorbance (a peak at from 450 nm to 490 nm) at the time of color development through a reaction of NADH, which is contained in the mitochondria of viable cells, and WST-8 to measure the amount of NADH. Specifically, the assay was performed by the following procedure.
(§3) The cells were plated at 50 μl, i.e., 5,000 cells per well in a 96-well microtiter plate. Next, a test compound dissolved in DMSO was mixed at various concentrations into the same medium, and 50 μl of each of the mixtures was added to each well. A medium was prepared so that the final concentration of the test compound was from 0 μM to 50 μM and so that the addition amount of DMSO was the same, and the cells were cultured in a CO2 incubator. On day 0 before the addition and on day 1, day 2, and day 3 after the addition, WST-8 reagent was added at 20 μl per well, and the cells were cultured for 1 hour in a CO2 incubator. After that, measurement was performed with ARVO X3 (manufactured by PerkinElmer).
(§4) Specifically, an absorbance at 450 nm was measured, an absorbance at 595 nm was measured in the same well, and the absorbance at 595 nm was subtracted from the absorbance at 450 nm to perform background correction for the well itself. Further, a well containing only a medium free of cells was subjected to the same measurement. A value in this case was also subtracted. Thus, the amount of viable cells was represented as a numerical value with correction of the influence of a medicament or a medium as well. Under a condition not containing the test compound (addition of only dimethyl sulfoxide), an exponential increase in number of viable cells on day 1, day 2, and day 3 in the stated order was confirmed.

[2] = tested on: HEL; experiment: Leukemia cell growth inhibition evaluation (WST-8); format: cell-based; conditions: Homo sapiens, day 3 (72-hour culture), read-out: Human leukemia cell line GI50 (μM) HEL
Description: as §1, §2, §3, §4

[3] = tested on: HL60; experiment: Leukemia cell growth inhibition evaluation (WST-8); format: cell-based; conditions: Homo sapiens, HL-60; day 3 (72-hour culture); read-out: Human leukemia cell line GI50 (μM) HL60
Description: as §1, §2, §3, §4

[4] = tested on: MLL/AF9 leukemia cell line; experiment: Leukemia cell growth inhibition evaluation (WST-8); format: cell-based; conditions: Mus musculus, day 3 (72-hour culture), read-out: Mouse MLL-fusion leukemia cell line GI50 (μM) MLL/AF9
Description: as §1, §2, §3, §4

[5] = tested on: KG1a; experiment: Leukemia cell growth inhibition evaluation (WST-8); format: cell-based; conditions: Homo sapiens, KG-1a; day 3 (72-hour culture); read-out: Human leukemia cell line GI50 (μM) KG1a
Description: as §1, §2, §3, §4

[6] = tested on: U937; experiment: Leukemia cell growth inhibition evaluation (WST-8); format: cell-based; conditions: Homo sapiens, U-937; day 3 (72-hour culture); read-out: Human leukemia cell line GI50 (μM) U937
Description: as §1, §2, §3, §4

[7] = tested on: THP1; experiment: Leukemia cell growth inhibition evaluation (WST-8); format: cell-based; conditions: Homo sapiens, THP-1; day 3 (72-hour culture); read-out: Human leukemia cell line GI50 (μM) THP1
Description: as §1, §2, §3, §4

[8] = tested on: MLL/SEPT6 leukemia cell line; experiment: Leukemia cell growth inhibition evaluation (WST-8); format: cell-based; conditions: Mus musculus; day 3 (72-hour culture); read-out: Mouse MLL-fusion leukemia cell line GI50 (μM) MLL/SEPT6
Description: as §1, §2, §3, §4

[9] = target: T1, monoamine oxidase A (MAO-A) (Homo sapiens, UniProt P21397); experiment: Monoamine oxidase inhibition test (MAO-Glo assay kit); format: biochemical; conditions: room temperature, 1 hour
T1 construct: purchased Sigma-Aldrich
T1 sequence (P21397 1-527): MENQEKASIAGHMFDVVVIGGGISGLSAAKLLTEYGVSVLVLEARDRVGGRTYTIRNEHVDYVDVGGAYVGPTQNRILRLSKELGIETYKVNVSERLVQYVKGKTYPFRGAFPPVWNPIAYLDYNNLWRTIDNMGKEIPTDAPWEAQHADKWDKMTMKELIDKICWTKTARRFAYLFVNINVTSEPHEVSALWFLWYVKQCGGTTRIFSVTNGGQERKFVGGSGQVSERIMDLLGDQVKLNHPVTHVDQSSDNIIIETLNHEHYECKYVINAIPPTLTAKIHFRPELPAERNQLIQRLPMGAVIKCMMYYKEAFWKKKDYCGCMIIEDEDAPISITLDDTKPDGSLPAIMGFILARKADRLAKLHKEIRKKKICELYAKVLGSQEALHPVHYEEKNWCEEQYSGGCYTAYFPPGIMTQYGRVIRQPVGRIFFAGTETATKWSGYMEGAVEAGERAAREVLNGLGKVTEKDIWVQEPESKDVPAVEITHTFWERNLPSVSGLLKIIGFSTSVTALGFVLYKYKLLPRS
Description: To the reaction liquid was added 50 μL of a luciferin detection reagent, and the mixture was subjected to a reaction at room temperature for 20 minutes.

[10] = tested on: SH-SY5Y cells; experiment: Cancer cell growth inhibition evaluation (MTT assay); format: cell-based; conditions: Homo sapiens, read-out: GI50 (μM) SH-SY5Y
Description: (§5) Evaluation was performed by measuring the inhibitory activities of a compound against the growth of a human cervical cancer-derived cell line, HeLa cells, and a human neuroblastoma cell line, SH-SY5Y cells. Details thereof are shown below. […] This assay involves, as a principle thereof, measuring an absorbance at the time of color development through a reaction of NADH, which is contained in the mitochondria of viable cells, and MTT to measure the amount of NADH. The assay was performed by the following procedure. […] After the culture, a compound was added. Then, the cells were cultured for an additional 48 hours, and then 5 mg/ml MTT liquid was added at 10 μl per well. The cells were cultured for an additional 3 hours in a CO2 incubator. A solubilization solution (0.04 mol/l hydrochloric acid-isopropanol) was added at 100 μl per well and the mixture was vigorously vortexed. After that, an absorbance at 560 nm was measured with Fusion-aFP (manufactured by PerkinElmer) and the amount of viable cells was determined.

[11] = tested on: HeLa cells; experiment: as above; format: cell-based; conditions: Homo sapiens, 48 h, read-out: GI50 (μM) HeLa
Description: as §5

Compound | GI50 [1] [µM] | GI50 [2] [µM] | GI50 [3] [µM] | GI50 [4] [µM] | GI50 [5] [µM] | GI50 [6] [µM] | GI50 [7] [µM] | GI50 [8] [µM] | IC50 [9] [µM] | GI50 [10] [µM] | GI50 [11] [µM]
O=C(N[C@@H](CCCCNC1CC1c1ccccc1)C(=O)NCc1ccccc1)c1ccc(-c2ccccc2)cc1 (stereo partly drawn) [Example 8, 2-[N-(4-Phenylbenzenecarbonyl)]amino-6-(trans-2-phenylcyclopropan-1-amino)-N-benzylhexanamide Hydrochloride] | < 1.3 | < 1.3 | 4 to 5 | < 2 | ~6.3 | 4.6 | 5 to 6 | 4 to 5 | 86 | 4 | 11
O=C(N[C@@H](CCCCNC1CC1c1ccccc1)C(=O)NCc1cccc(C(F)(F)F)c1)c1ccc(-c2ccccc2)cc1 (stereo partly drawn) [Example 19, 2-[N-(4-Phenylbenzenecarbonyl)]amino-6-(trans-2-phenylcyclopropan-1-amino)-N-(3-trifluoromethylbenzyl)hexanamide Hydrochloride] | < 1.3 | ~5 | 2.5 to 5 | < 1.25 | 5 to 10 | 10 to 20 | 5 to 10 | 2.5 to 5 | > 100 | 2.9 | 4.3
